Here are results for five compounds from publication PMC5405074, “Receptor-Mediated Melanoma Targeting with Radiolabeled α-Melanocyte-Stimulating Hormone: Relevance of the Net Charge of the Ligand” (Frontiers in Endocrinology, 2017).

The conditions of data set [1]: cited from earlier work.
Data set [2] is described as follows: Biodistribution of ^111In-labeled peptides in B16-F1 melanoma-bearing mice. It counts as in vivo, mouse (B6D2F1). Particulars: female, iv, total radioactivity; for tissue to tissue ratio at 24 h / tissue to tissue ratio at 48 h: B6D2F1 (C57BL/6 × DBA/2F1 hybrids), mouse; for tissue to tissue ratio at 24 h / tissue to tissue ratio at 48 h / tissue to tissue ratio at 4 h: 185 kBq, mean tumor uptake divided by mean kidney uptake; for tissue to tissue ratio at 24 h: 24 h postinjection; for tissue to tissue ratio at 48 h: 48 h postinjection; for tissue to tissue ratio at 4 h / tissue uptake at 4 h: B6D2F1, mouse; for tissue to tissue ratio at 4 h: 4 h postinjection; for tissue uptake at 4 h: ^111In-labeled peptide, 185 kBq i.v., mean ± SEM of three experiments, n = 5 animals each. As to the method:
(§1) About 5 × 10^5 B16-F1 cells were implanted subcutaneously to female B6D2F1 mice (C57BL/6 × DBA/2F1 hybrids; breeding pairs obtained from IFFA-CREDO, France). Seven days later, 185 kBq of ^111In-labeled ligand in 200 µL PBS/0.1% BSA were injected intravenously into the lateral tail vein of each mouse. Control mice were injected with a mixture of the tracer and 50 µg α-MSH to determine the non-specific uptake of radioligand. The animals were sacrificed 4, 24, and 48 h postinjection, dissected, and the tissues of interest collected, rinsed of excess blood, and weighed. The radioactivity emitted by each organ was measured in a γ-counter to determine the tissue uptake as percentage of the injected dose (ID) per gram of tissue. The total of injected radioactivity per animal was determined by extrapolation from the counts of a standard collected from the injection solution for each animal. Urine samples were collected at 10, 15, and 20 min and 4 h after injection and kept frozen at −80°C until use. Urine (1 vol) was mixed with methanol (2 vol) to precipitate proteins, and the supernatant was analyzed by RP-HPLC/γ-detection, as described in Ref. ([12]).
(§2) Results are expressed as means ± SEM, unless otherwise stated. The statistical evaluation of data was performed using the one- or two-way ANOVA test. When significant overall effects were obtained by ANOVA, multiple comparisons were made with the Bonferroni correction. P < 0.05 was considered statistically significant. The area under the curve (AUC) was calculated with the GraphPad Prism 6 software for the indicated period of time, using the mean tissue uptake value at each time point.

Data set [3] has as its system B16-F1 tumor-bearing mice. Described as above. The format is in vivo, mouse (B6D2F1). The procedure:
as §1, §2

Setting [4] is: kidney, read-out: Kidney uptake.

“Also recorded” adds a separate entry of the source. Where two headings read alike, the source gives them in different places. Non-standard residues stand in square brackets, D forms with d. Residues, ends and D or L forms follow the SMILES beside them. *: point of attachment. DOTA = O=C(O)CN1CCN(CC(=O)O)CCN(CC(=O)*)CCN(CC(=O)O)CC1; pY = N[C@@H](Cc1ccc(OP(=O)(O)O)cc1)C(=O)O; Nle = CCCC[C@H](N)C(=O)O

Take “[DOTA-Nle^4,Asp^5,D-Phe^7,Lys^11(Suc)]-α-MSH4-11-carboxylate”: in data set [1] (in vivo), the “Kidney uptake (in words)” value was “reduced kidney uptake”, the “Tumor uptake (in words)” value is “tumor uptake was also affected” and the “Tumor-to-kidney ratio (in words)” value is listed as “even lower than that of the parent molecule”.

`CCCC[C@H](NC(=O)[C@H](Cc1ccc(OP(=O)(O)O)cc1)NC(=O)CNC(=O)CN1CCN(CC(=O)O)CCN(CC(=O)O)CCN(CC(=O)O)CC1)C(=O)N[C@@H](CC(=O)O)C(=O)N[C@@H](Cc1c[nH]cn1)C(=O)N[C@H](Cc1ccccc1)C(=O)N[C@@H](CCCNC(=N)N)C(=O)N[C@@H](Cc1c[nH]c2ccccc12)C(N)=O` [[^111In]DOTA-Phospho-MSH2-9, metal not drawn] ({DOTA}-G[pY][Nle]DH[dF]RW-NH2): in data set [2], the tissue to tissue ratio at 24 h came out at 1.55, the tissue to tissue ratio at 48 h came to 1.16 and the tissue to tissue ratio at 4 h was 2.75. Besides, the tissue uptake at 4 h in data set [2] (setting [4]) was determined as 2.68 ± 0.18 %ID/g. Moreover, in data set [2] (tumor, read-out: Tumor uptake), the tissue uptake at 4 h is 7.33 ± 0.47 %ID/g.

As for `CCCC[C@H](NC(=O)[C@H](Cc1ccc(OP(=O)(O)O)cc1)NC(=O)CNC(=O)CN1CCN(CC(=O)O)CCN(CC(=O)O)CCN(CC(=O)O)CC1)C(=O)N[C@@H](CC(=O)O)C(=O)N[C@@H](Cc1c[nH]cn1)C(=O)N[C@H](Cc1ccccc1)C(=O)N[C@@H](CCCNC(=N)N)C(=O)N[C@@H](Cc1c[nH]c2ccccc12)C(N)=O` [[^111In]DOTA-Phospho-MSH2-9] [metal not drawn] ({DOTA}-G[pY][Nle]DH[dF]RW-NH2), the “Effect of coinjection of α-MSH on melanoma uptake (in words)” value in data set [3] (50 µg α-MSH coinjected, data not shown) is “significantly blocked melanoma uptake”. In data set [3] (4–48 h), the “Clearance from the kidney (in words)” value is given as “slightly slower”; the “Uptake by other organs (in words)” value was “very low and did not exceed the values found with [^111In]DOTA-NAP-amide”. Also, in data set [3] (4 h after injection), the “Kidney retention lower than that of [^111In]DOTA-NAP-amide” value is 44% and the “Kidney uptake as percentage of that of the reference peptide” value is on record as 56%. Also, the “Retention of radioactivity by the tumor” value in data set [3] (24 h postinjection, decreased to % of 4 h value) came out at 40%. In data set [3] (AUC (4–48 h) or overall comparison), the “Tumor-to-kidney ratio compared with other peptides (in words)” value is recorded as “threefold higher; also recorded: most favorable tumor-to-kidney ratio of a linear DOTA-MSH radiopeptide reported to date”. Also, the “Kidney uptake/retention compared with reference (in words)” value in data set [3] (in vivo) was “markedly lower”. Further, in data set [3] (in vivo, B16-F1 tumors), the “Tumor uptake compared with reference (in words)” value was “almost identical with that of [^111In]DOTA-NAP-amide; also recorded: about as high as for the reference compound”. Further, the “Kidney uptake compared with other peptides (in words)” value in data set [3] (peptides of net charge −2 to +2, five of the eight peptides from ref 14) was “slightly lower kidney uptake than [^111In-DOTA-Nle^4,Asp^5,D-Phe^7,Lys^11(Suc)]-α-MSH4-11-carboxylate”.

Regarding `CCCC[C@H](NC(C)=O)C(=O)N[C@@H](CC(=O)O)C(=O)N[C@@H](Cc1c[nH]cn1)C(=O)N[C@H](Cc1ccccc1)C(=O)N[C@@H](CCCNC(=N)N)C(=O)N[C@@H](Cc1c[nH]c2ccccc12)C(=O)NCC(=O)N[C@@H](CCCCNC(=O)CN1CCN(CC(=O)O)CCN(CC(=O)O)CCN(CC(=O)O)CC1)C(=O)N[C@H](CC(=O)O)C(=O)N[C@H](CC(=O)O)C(=O)O` [[^111In]DOTA-NAP-D-Asp-D-Asp, metal not drawn] (Ac-[Nle]DH[dF]RWGK(DOTA)[dD][dD]-OH; N-terminus and C-terminus assumed), in data set [2], the tissue to tissue ratio at 24 h was found to be 0.15, the tissue to tissue ratio at 48 h came out at 0.11 and the tissue to tissue ratio at 4 h came to 0.32. In addition, the tissue uptake at 4 h in data set [2] (setting [4]) came to 5.95 ± 0.85 %ID/g. Besides, the tissue uptake at 4 h in data set [2] (tumor, read-out: Tumor uptake) came out at 1.93 ± 0.11 %ID/g.

Consider `CCCC[C@H](NC(C)=O)C(=O)N[C@@H](CC(=O)O)C(=O)N[C@@H](Cc1c[nH]cn1)C(=O)N[C@H](Cc1ccccc1)C(=O)N[C@@H](CCCNC(=N)N)C(=O)N[C@@H](Cc1c[nH]c2ccccc12)C(=O)NCC(=O)N[C@@H](CCCCNC(=O)CN1CCN(CC(=O)O)CCN(CC(=O)O)CCN(CC(=O)O)CC1)C(N)=O` [[^111In]DOTA-NAP-amide, metal not drawn, reference compound], for which, in data set [1] (4 h after injection, ref Froidevaux and Eberle, unpublished), the “Metabolite in vivo (in words)” value was “Lys([^111In]DOTA), a metabolite of internalized [^111In]DOTA-NAP-amide occurring 4 h after injection”. For the same compound, in data set [2], the tissue to tissue ratio at 24 h turned out to be 0.96, the tissue to tissue ratio at 48 h was 0.91 and the tissue to tissue ratio at 4 h stood at 1.63. The tissue uptake at 4 h in data set [2] (setting [4]) worked out at 4.77 ± 0.26 %ID/g. For the same compound, the tissue uptake at 4 h in data set [2] (tumor, read-out: Tumor uptake) is 7.77 ± 0.35 %ID/g.
